In ChEMBL document CHEMBL1131392, “3-Pyridyloxypropanolamine agonists of the beta 3 adrenergic receptor with improved pharmacokinetic properties” (Bioorg Med Chem Lett, 1998) one finds bioavailability, half-life and clearance data, which are given here for three compounds.

The nature of series [1]: Oral bioavailability in dog. The series is classed as ADME, organism-based, Canis lupus familiaris. The conditions noted are these: in vivo.
The nature of series [2]: Compound was evaluated for half life (t1/2) upon intravenous administration of 1 mg/Kg in rats. Format: ADME, organism-based. The conditions noted are these: rat, in vivo.
A short description of series [3]: Plasma clearance upon intravenous administration of 1 mg/Kg in rats. Format: ADME, organism-based. The conditions noted are these: rat.

SMILES strings stand for the structures.

The term bioavailability denotes dose-corrected exposure relative to a reference, in per cent. A higher bioavailability goes with good availability. The half-life is how long it takes for the measured level to halve. High values mean slow loss, low ones fast loss. What is called clearance is a measure of how efficiently the substance is removed, as volume per time. A low value points to inefficient removal.

Regarding `O=S(=O)(Nc1ccc(CCNC[C@H](O)COc2ccc(O)cc2)cc1)c1cnc2ccccc2c1`, the bioavailability in series [1] was found to be 3%.

In turn, `O=S(=O)(Nc1ccc(CCNC[C@H](O)COc2ccc(O)cc2)cc1)c1ccccc1` yielded a half-life in series [2] of 25 min. The same compound had a clearance in series [3] of more than 200 mL/min/kg.

In turn, `CCCCCCNC(=O)Nc1ccc(S(=O)(=O)Nc2ccc(CCNC[C@H](O)COc3ccc(O)cc3)cc2)cc1` [L-755507] returned a bioavailability in series [1] of less than 1%.
